Calls of active or inactive are those of the source. The rule behind the calls is not given here.

In general, Inhibition refers to how much of the control response was suppressed. A low value points to little suppression.

Experiment [1] has as its system Rattus norvegicus. The experiment can be described thus: Urinary glucose excretion in Wistar rat after intravenous administration (3 mg/kg). Type of experiment: functional, Urine.
The species named for experiment [2] is Rattus norvegicus. The experiment can be described thus: Na+ -glucose co-transporter (SGLT) inhibitory activity against [C14]-glucose transport in BBMV's of rat kidney at compound concentration of 10 uM.
Experiment [3] is filed under the species Rattus norvegicus. The experiment can be described thus: Na+ -glucose co-transporter (SGLT) inhibitory activity against [C14]-glucose transport in BBMV's of rat kidney at compound concentration of 100 uM: Not active. Type of experiment: functional.
The species named for experiment [4] is Rattus norvegicus. The experiment can be described thus: Na+ -glucose co-transporter (SGLT) inhibitory activity against [C14]-glucose transport in BBMV's of rat kidney at compound concentration of 100 uM. The class given is functional.

In experiment [1], `CCc1ccc(Cc2c(C(F)(F)F)n[nH]c2O[C@@H]2O[C@H](CO)[C@@H](O)[C@H](O)[C@H]2O)cc1` came in with a Glucose of 63 mg/day. Also, the Inhibition in experiment [2] came out at 84%.
Take `CSc1ccc(Cc2c(C(F)(F)F)n[nH]c2O)cc1`: the Glucose in experiment [1] was found to be 0 mg/day. Besides, the inhibition entry in experiment [3] was “inactive”.
In experiment [1], `CCc1ccc(Cc2c(C(F)(F)F)n[nH]c2O[C@@H]2O[C@H](C(=O)O)[C@@H](O)[C@H](O)[C@H]2O)cc1` returned a Glucose of 2.6 mg/day. Besides, in experiment [4], the Inhibition stood at 30%.

The values above are taken from ChEMBL document CHEMBL1136095, “Pyrazole-O-glucosides as novel Na(+)-glucose cotransporter (SGLT) inhibitors” (2003).
